Test results published in PubChem BioAssay (NCI).
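Step 1: Grow cells in 96-well plates. Step 2: Expose to compound for 48 hours at 5 concentrations. Step 3: Interpolate endpoints linearly; if unreached, use highest concentration. The concentration for 50% growth inhibition is given as GI50. At the TGI there is no net growth.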

Columns and labels:
Experiment in all cases: NCI-60 cell line screen, 48 h
RPMI-8226 leukemia = test system: RPMI-8226 leukemia
BT-549 breast = test system: BT-549 breast
SF-539 CNS = test system: SF-539 CNS
NCI-H460 lung = test system: NCI-H460 lung
K-562 leukemia = test system: K-562 leukemia
UO-31 renal = test system: UO-31 renal
IGROV1 ovarian = test system: IGROV1 ovarian
NCI-H23 lung = test system: NCI-H23 lung
SF-268 CNS = test system: SF-268 CNS
SW-620 colon = test system: SW-620 colon

SMILES	GI50 (RPMI-8226 leukemia)	TGI (RPMI-8226 leukemia)	GI50 (BT-549 breast)	TGI (BT-549 breast)	GI50 (SF-539 CNS)	TGI (SF-539 CNS)	GI50 (NCI-H460 lung)	TGI (NCI-H460 lung)	GI50 (K-562 leukemia)	TGI (K-562 leukemia)	GI50 (UO-31 renal)	TGI (UO-31 renal)	GI50 (IGROV1 ovarian)	TGI (IGROV1 ovarian)	GI50 (NCI-H23 lung)	TGI (NCI-H23 lung)	GI50 (SF-268 CNS)	TGI (SF-268 CNS)	GI50 (SW-620 colon)	TGI (SW-620 colon)
COc1cc2c(N3CCN(C(=O)Nc4ccc(OC(C)C)cc4)CC3)ncnc2cc1OCCCN1CCCCC1	11.7 µM	> 54.1 µM	13.4 µM	29.3 µM	6.43 µM	22.3 µM	18.4 µM	> 61.3 µM	4.98 µM	> 100 µM	15.2 µM	40.7 µM	31.8 µM	97.7 µM	14.6 µM	39.1 µM	16.2 µM	38.6 µM	14.6 µM	38.8 µM
COc1cc(CNc2nc3cc(N)cc(N)c3nc2-c2ccccc2)cc(OC)c1	–	6.22 µM	9.7 µM	> 100 µM	5.29 µM	21.4 µM	10.5 µM	> 100 µM	3.6 µM	9.23 µM	4.05 µM	> 100 µM	8.62 µM	55.7 µM	16.2 µM	> 100 µM	5.32 µM	> 100 µM	4.45 µM	> 100 µM
COc1cc2c(cc1Nc1nc(N3CCc4ccccc43)c3cc[nH]c3n1)N(C(=O)CN(C)C)CC2	1.55 µM	3.98 µM	8.38 µM	15.7 µM	4.88 µM	10.8 µM	1.29 µM	2.79 µM	0.478 µM	1.2 µM	5.26 µM	11.6 µM	10.9 µM	17.1 µM	4.98 µM	14.6 µM	5.03 µM	10.3 µM	0.35 µM	0.8 µM
O=C(/C=C/C12c3ccccc3C(c3ccccc31)C1C(=O)NC(=O)C12)c1ccccn1 (centres undefined)	1.22 µM	4.3 µM	1.82 µM	3.69 µM	2.04 µM	4.65 µM	1.08 µM	4.11 µM	1.37 µM	18.1 µM	1.32 µM	2.74 µM	1.36 µM	6.53 µM	1.89 µM	4.07 µM	1.61 µM	4.35 µM	1.69 µM	5.03 µM
CCN1C(=S)N(CC)C2C1NC(=S)N2/N=C/C=C/c1ccccc1OC (centres undefined)	0.377 µM	7.08 µM	0.899 µM	8.56 µM	0.194 µM	0.541 µM	0.335 µM	> 33.4 µM	0.129 µM	> 72.1 µM	0.621 µM	> 93 µM	0.506 µM	> 100 µM	0.466 µM	> 100 µM	0.913 µM	44.8 µM	0.338 µM	> 100 µM
Cc1cccc(NC(=O)c2sc3nc4c(cc3c2N)C(=O)CCC4)c1	0.594 µM	> 100 µM	2.68 µM	> 96.3 µM	0.199 µM	0.616 µM	0.312 µM	> 39.3 µM	0.105 µM	> 100 µM	13.9 µM	51.2 µM	0.68 µM	> 60.8 µM	0.67 µM	> 60.4 µM	3.07 µM	> 100 µM	0.212 µM	> 65.8 µM
COc1ccc2sc3c(NCCCN)nc4ccccc4c3c(=O)c2c1	1.85 µM	3.89 µM	1.69 µM	3.55 µM	1.75 µM	3.17 µM	1.86 µM	3.55 µM	1.11 µM	3.4 µM	1.43 µM	2.82 µM	1.67 µM	3.19 µM	1.76 µM	3.43 µM	1.66 µM	3.44 µM	1.76 µM	3.44 µM
CCCCCCN(CCCCCC)C(=S)N/N=C(\C)c1ccccn1	–	3.22 µM	–	3.8 µM	–	2.77 µM	–	2.97 µM	–	4.64 µM	–	3.07 µM	–	2.62 µM	–	3.27 µM	–	3.52 µM	–	4.77 µM
c1ccc(-c2[nH]ncc2-c2ccnc(-c3ccc(OCCn4ccnc4)cc3)c2)nc1	> 20.6 µM	> 25 µM	22.5 µM	> 25 µM	> 25 µM	> 25 µM	> 25 µM	> 25 µM	6.44 µM	> 25 µM	6.57 µM	> 25 µM	> 25 µM	> 25 µM	> 25 µM	> 25 µM	> 25 µM	> 25 µM	> 25 µM	> 25 µM
Cn1nccc1Nc1nccc(-c2ccn([C@H](CO)c3ccc(Cl)c(F)c3)c(=O)c2)n1	21.6 µM	59.3 µM	19.7 µM	61 µM	2.24 µM	6.91 µM	38.4 µM	> 100 µM	22.5 µM	> 100 µM	24.7 µM	> 100 µM	22.9 µM	> 100 µM	4.47 µM	> 100 µM	38.1 µM	> 100 µM	5.02 µM	30.4 µM
COc1ccc(OC)c(NCC(=O)n2nc(/C=C\c3ccc(O)c(OC)c3)cc2/C=C\c2ccc(O)c(OC)c2)c1	0.702 µM	3.54 µM	1.44 µM	5.7 µM	1.74 µM	6.15 µM	2.59 µM	9.84 µM	0.729 µM	> 100 µM	1.8 µM	13.6 µM	2.91 µM	21 µM	2.62 µM	31.7 µM	2.37 µM	> 100 µM	2.03 µM	5.48 µM
CNCc1cccc2c1OCCOCCOCCN(C)S(=O)(=O)c1ccc(cc1)-c1cnc(N)c(n1)C(=O)N2	4.39 µM	31 µM	3.27 µM	21.6 µM	0.534 µM	1.98 µM	0.868 µM	2.95 µM	0.622 µM	10.3 µM	1.21 µM	2.91 µM	0.58 µM	12.8 µM	2.47 µM	27.9 µM	1.75 µM	5.81 µM	1.66 µM	4.25 µM
